# According to patent US20230295152A1 (SENDA BIOSCIENCES, INC., priority 2019, published 2023):
# Tests used:
# [1] = CT26 syngeneic colon cancer model, AhR antagonist with PD-L1 antibody; format: in vivo; settings: female, Balb/c, mouse, in vivo, po; CT26 model, dose 10 mg/kg
# [2] = system: CT26 cells implanted subcutaneously into Balb/c mice; experiment: as above; format: in vivo; settings: for Cmin: CT26 model, dose 10 mg/kg
# [3] = system: CYP1A1 mRNA levels in HT26; experiment: CYP1A1 Gene Expression Assay, mouse CRC cell line HT26; format: cell-based; settings: for IC50: Mus musculus; for Mouse CYP1A1 % eff: efficacy given with the IC50
# Experimental: Human and mouse colorectal cancer (CRC) cell lines, HT29 and HT26 respectively, American Type Culture Collection (ATCC) are plated in a sterile tissue culture treated 96-well plate (ThermoFisher) at 8.0×10^5 cells per well, and grown overnight at 37° C., 5% CO2 in DMEM complete (Gibco) in order to achieve confluence. After the incubation medium is aspirated off the cell monolayers, tissues are then washed with 200 μL of warmed PBS solution, and subsequently 190 μL of pre-warmed growth medium is added to each well. AhR antagonist of interest are diluted at a 20×concentration in growth medium containing 2% DMSO, and 10 μL of compound solutions are added to respective wells in triplicate. After 1 hr, AHR activating ligand, such as TCDD, kynurenine, ITE (2-(1H-indole-3-ylcarbonyl)-4-thiazolecarboxylic methyl ester), VAF347, BNF (beta-naphthoflavone), FICZ (6-formylindolo(3,2-b) carbazole or other AHR ligands, is added with or without AHR antagonist for 24 hours, after which media will be removed and stored at −80 C for later cytokine analysis. At the end of the incubation, medium is aspirated off the CRC cells, and the cells washed with 100 μL of cold PBS solution. RNA is extracted via the TaqMan™ Gene Expression Cells-to-CT™ Kit (ThermoFisher) according to the manufacturer's protocol. The QuantStudio 6 Flex (Applied Biosciences) is used to analyze mRNA levels of CYP1A1 using GAPDH as the endogenous control. TaqMan™ probe sets for both genes are acquired from ThermoFisher. Samples are run in triplicate and data is analyzed using the QuantStudio software and reported as linear and log 2(ΔΔCT) values. Statistical analysis is performed using a two-tailed t-test comparing CYP1A1 levels in the presence of each individual compound to the vehicle negative control. […] This assay can be used to confirm the inhibitory effect of the compounds prior to testing using an in vivo model.
# [4] = Liver Microsome Stability Assay, human; format: in vitro ADME; settings: human liver microsomes
# Experimental: Two separate experiments were performed as follows.
# With Cofactors (NADPH): 25 μL of 10 mM NADPH was added to the incubations. The final concentrations of microsomes and NADPH were 0.5 mg/mL and 1 mM, respectively. The final concentration of microsomes was 0.5 mg/mL. The mixture was pre-warmed at 37° C. for 10 minutes. The reaction was started with the addition of 2.5 μL of 100 μM control compound or test compound solutions. Verapamil was used as positive control in this study. The final concentration of test compound or control compound was 1 μM. The incubation solution was incubated in water batch at 37° C. Aliquots of 25 μL were taken from the reaction solution at 0.5, 5, 15, 30 and 60 minutes. The reaction was stopped by the addition of 5 volumes of cold acetonitrile with IS (200 nM caffeine and 100 nM tolbutamide). Samples were centrifuged at 3, 220 g for 40 minutes. Aliquot of 100 μL of the supernatant was mixed with 100 μL of ultra-pure H2O and then used for LC-MS/MS analysis.
# Data Analysis: All calculations were carried out using Microsoft Excel. Peak areas were determined from extracted ion chromatograms. The slope value, k, was determined by linear regression of the natural logarithm of the remaining percentage of the parent drug vs. incubation time curve.
# The in vitro half-life (in vitro t1/2) was determined from the slope value:
# Conversion of the in vitro t1/2 (min) into the in vitro intrinsic clearance (in vitro CLint, in μL/min/mg protein) was done using the following equation (mean of duplicate determinations): […]
# The calculations of Scaled-up CLint(mL/min/kg), Predicted CLH (mL/min/kg) and EH were done using the following equation:
# Scaled-up CLint=(0.693/t1/2)×(1/(microsomal protein concentration(0.5 mg/mL)))×Scaling Factors;Predicted CLH=(QH×Scaled-up CLint×fub)/(QH+Scaled-up CLint×fub);EH=Predicted CLH/QH
# where QH is the hepatic blood flow (mL/min/kg) (Table 32), • fub is the fraction of unbound drug in plasma which is assumed to be 1.
# “+++” indicates a Clint value less than 10 mL/min/Kg, […] indicates a Clint between 10 and 20 mL/min/Kg, and “+” indicates a Clint above 20 mL/min/Kg.
structure (smiles),measurement,setting,value
C[C@H](n1cnc2c(-c3cnn(C)c3)nc(-c3ccc(Cl)cc3)cc2c1=O)C(C)(C)O [Compound 30],Cmax,[1],5.88 µM
same,Cmin,[2],"1,725 nm"
same,"tumor volume, coadministration with PD-L1 antibody","[2]; FIG. 4, 10 mg/kg p.o. once a day over 14 days with anti-PD-L1 antibody 10 mg/kg IP every 3 days, p=0.039 (Mann-Whitney)",reduction in tumor volume
same,"tumor weight upon termination of study, coadministration with PD-L1 antibody","[2]; FIG. 5, 10 mg/kg p.o. once a day over 14 days with anti-PD-L1 antibody 10 mg/kg IP every 3 days, p=0.067 (Mann-Whitney)",reduction in tumor weight
same,"tumor volume, coadministration with PD-L1 antibody","[2]; FIG. 6, 10 mg/kg p.o. once a day over 14 days with anti-PD-L1 antibody 10 mg/kg IP every 3 days, p=0.350 (Kruskal Wallis, Dunn's)",reduction in tumor volume
same,"tumor weight upon termination of study, coadministration with PD-L1 antibody","[2]; FIG. 7, 10 mg/kg p.o. once a day over 14 days with anti-PD-L1 antibody 10 mg/kg IP every 3 days, p=0.0004 (Kruskal Wallis, Dunn's)",reduction in tumor weight
same,IC50,[3],2.9 nM
same,Mouse CYP1A1 % eff,[3],~56%
CC(C)(O)Cn1cnc2c(-c3cccnc3)nc(-c3ccc(Cl)cc3)cc2c1=O [Compound 18],Human liver microsome clearance,[4],+++ (“+++” indicates a Clint value less than 10 mL/min/Kg)
CC(C)(O)Cn1cnc2c(-c3cccnc3)nc(-c3ccc(C(F)(F)F)cc3)cc2c1=O [Compound 16],Human liver microsome clearance,[4],+++ (“+++” indicates a Clint value less than 10 mL/min/Kg)
Cn1cc(-c2nc(-c3ccc(Cl)cc3)cc3c(=O)n(CC(C)(C)O)cnc23)cn1 [Compound 21],Human liver microsome clearance,[4],+++ (“+++” indicates a Clint value less than 10 mL/min/Kg)
C[C@@H](CO)n1cnc2c(-c3cccnc3)nc(-c3ccc(C(F)(F)F)cc3)cc2c1=O [Compound 23],Human liver microsome clearance,[4],+++ (“+++” indicates a Clint value less than 10 mL/min/Kg)
"C[C@@H](CO)n1cnc2c(-c3cccnc3)nc(-c3ccc(C(F)(F)F)cn3)cc2c1=O [Compound 46, (S)-3-(1-hydroxypropan-2-yl)-8-(pyridin-3-yl)-6-(5-(trifluoromethyl)pyridin-2-yl)pyrido[3,4-d]pyrimidin-4(3H)-one]",Cmax,[1],17.3 µM
same,Cmin,[2],"12,350 nm"
same,"tumor volume, coadministration with PD-L1 antibody","[2]; FIG. 12, 10 mg/kg p.o. once a day over 14 days with anti-PD-L1 antibody 10 mg/kg IP every 3 days",reduction in tumor volume
same,"tumor weight upon termination of study, coadministration with PD-L1 antibody","[2]; FIG. 13, 10 mg/kg p.o. once a day over 14 days with anti-PD-L1 antibody 10 mg/kg IP every 3 days",reduction in tumor weight
same,IC50,[3],18.5 nM
same,Mouse CYP1A1 % eff,[3],~96%
C[C@@H](CO)n1cnc2c(-c3cnn(C)c3)nc(-c3ccc(OC(F)(F)F)cc3)cc2c1=O [Compound 25],Human liver microsome clearance,[4],+++ (“+++” indicates a Clint value less than 10 mL/min/Kg)
CC(C)(O)Cn1cnc2c(-c3cccnc3)nc(-c3ccc(C(F)(F)F)nc3)cc2c1=O [Compound 9],Cmax,[1],4.96 µM
same,"tumor volume and weight, combination with PD-L1 compared to PD-L1 alone (overall)",[2]; 10 mg/kg or 1 mg/kg p.o. once a day over 14 days with anti-PD-L1 antibody 10 mg/kg IP every 3 days,decreases tumor volume and weight compared to PD-L1 alone
same,Cmin,[2],849 nm
same,"tumor volume, coadministration with PD-L1 antibody","[2]; FIG. 8, 10 mg/kg p.o. once a day over 14 days with anti-PD-L1 antibody 10 mg/kg IP every 3 days, p=0.0070 (Mann-Whitney)",reduction in tumor volume
same,"tumor weight upon termination of study, coadministration with PD-L1 antibody","[2]; FIG. 9, p.o. once a day over 14 days with anti-PD-L1 antibody 10 mg/kg IP every 3 days, p=0.0114 (Mann-Whitney)",reduction in tumor weight
same,"tumor volume, coadministration with PD-L1 antibody","[2]; FIG. 10, 1 mg/kg p.o. once a day over 14 days with anti-PD-L1 antibody 10 mg/kg IP every 3 days, p=0.0039 (Kruskal Wallis, Dunn's)",reduction in tumor volume
same,"tumor weight upon termination of study, coadministration with PD-L1 antibody","[2]; FIG. 11, p.o. once a day over 14 days with anti-PD-L1 antibody 10 mg/kg IP every 3 days, p=0.0029 (Kruskal Wallis, Dunn's)",reduction in tumor weight
same,IC50,[3],2.7 nM
same,Mouse CYP1A1 % eff,[3],~55%
C[C@@H](CO)n1cnc2c(-c3cccnc3)nc(-c3ccc(OC(F)(F)F)cc3)cc2c1=O [Compound 22],Human liver microsome clearance,[4],+++ (“+++” indicates a Clint value less than 10 mL/min/Kg)
C[C@@H](CO)n1cnc2c(-c3cccnc3)nc(-c3ccc(C(F)(F)F)nc3)cc2c1=O [Compound 12],Human liver microsome clearance,[4],+++ (“+++” indicates a Clint value less than 10 mL/min/Kg)
C[C@@H](CO)n1cnc2c(-c3cccc(F)c3)nc(-c3ccc(Cl)cc3)cc2c1=O [Compound 7],"tumor volume, coadministration with PD-L1 antibody","[2]; FIG. 2, 3 mg/kg p.o. once a day over 14 days with anti-PD-L1 antibody 10 mg/kg IP every 3 days, p=0.0039 (Mann-Whitney)",reduction in tumor volume
same,"tumor weight upon termination of study, coadministration with PD-L1 antibody","[2]; FIG. 3, 3 mg/kg p.o. once a day over 14 days with anti-PD-L1 antibody 10 mg/kg IP every 3 days, p=0.041 (Mann-Whitney)",reduction in tumor weight
same,Human liver microsome clearance,[4],+++ (“+++” indicates a Clint value less than 10 mL/min/Kg)
C[C@H](n1cnc2c(-c3cccnc3)nc(-c3cccnc3)cc2c1=O)C(C)(C)O [Compound 34],Human liver microsome clearance,[4],+++ (“+++” indicates a Clint value less than 10 mL/min/Kg)
"Cc1ccc(-c2cc3c(=O)n([C@@H](C)CO)cnc3c(-c3cccnc3)n2)cc1 [Compound 17, (S)-3-(1-hydroxypropan-2-yl)-8-(pyridin-3-yl)-6-(p-tolyl)pyrido[3,4-d]pyrimidin-4(3H)-one]",Human liver microsome clearance,[4],+ (“+” indicates a Clint above 20 mL/min/Kg)
C[C@@H](CO)n1cnc2c(-c3cnn(C)c3)nc(-c3ccc(Cl)cc3)cc2c1=O [Compound 27],Human liver microsome clearance,[4],+++ (“+++” indicates a Clint value less than 10 mL/min/Kg)
